Literature values as cited in publication PMC9405102, “Targeted Modification and Structure-Activity Study of GL-29, an Analogue of the Antimicrobial Peptide Palustrin-2ISb” (Antibiotics, 2022).

Experiments:
[1] = test system: Gram-positive and Gram-negative bacteria; design: method as in PMID 21193000; details: cited from earlier work
[2] = test system: Staphylococcus aureus (S. aureus); design: method as in PMID 21911019; details: cited from earlier work
[3] = test system: Escherichia coli (E. coli); design: method as in PMID 21911019; details: cited from earlier work
[4] = test system: methicillin-resistant S. aureus (MRSA); design: method as in PMID 21911019; details: cited from earlier work
C. albicans = test system: C. albicans; design: method as in PMID 21911019; details: at 100 μM; cited from earlier work

Row | Sequence | activity against Gram-positive and Gram-negative bacteria [1] | MIC [2] [µM] | MIC [3] [µM] | MIC [4] [µM] | activity against C. albicans (C. albicans)
1 | GKKLFVNVLDKIRCKVAGGC [palustrin-2ISb-des-C7-des-N9, literature analogue with one helical part of Pa2ISb-des-C7] | little activity |  |  |  | 
2 | GLWNSIKIAGKKLFVNVLDKIRCKVAGGCKTSPDVE [palustrin-2ISb, parent antimicrobial peptide of 36 residues isolated from Odorrana ishikawae] |  | 6.3 | 6.3 | 100 | no activity
